Experiments:
hypertensive rabbits = test: Hypertensive rabbit IOP lowering study; assay type: in vivo; conditions: topical
[1] = test system: H9C2 (normal, rat myocytes); test: MTT cytotoxicity assay; assay type: cell-based; conditions: tested up to 100 μM (data not shown)
[2] = test system: HT-29 (human colorectral cancer); test: MTT cytotoxicity assay; assay type: cell-based; conditions: tested up to 100 μM (data not shown)
[3] = test system: HepG2 (human liver carcinoma); test: MTT cytotoxicity assay; assay type: cell-based; conditions: tested up to 100 μM (data not shown)
[4] = test system: HCEC (human corneal epithelial cell); test: MTT cytotoxicity assay; assay type: cell-based; conditions: MTT, tested up to 100 μM (data not shown)
MTT cytotoxicity assay = assay type: cell-based, human; conditions: human, HCEC (human corneal epithelial) cells
Solubility in water = assay type: physicochemical
[5] = one drop (50 μL) of 1% solution (BRZ 1% suspension)

| Solubility (Solubility in water) [%] | Structure (SMILES) | return to basal IOP values (hypertensive rabbits; 1% suspension) [h] | maximal IOP lowering (hypertensive rabbits; [5]) | time of maximal IOP lowering effect post-administration (hypertensive rabbits; [5]) [h] | toxicity to H9C2 cells [1] | toxicity to HT-29 cells [2] | toxicity to HepG2 cells [3] | toxicity to HCEC cells [4] | viability at 96 h, 1 % (MTT cytotoxicity assay) [%] | viability at 96 h, 2 % (MTT cytotoxicity assay) [%] |
| --- | --- | --- | --- | --- | --- | --- | --- | --- | --- | --- |
| 0.05 | CCN[C@H]1CN(CCCOC)S(=O)(=O)c2sc(S(N)(=O)=O)cc21 [BRZ, brinzolamide] | 3 | around 5 mm Hg | 1 | did not display any appreciable toxicity | did not display any appreciable toxicity | did not display any appreciable toxicity | did not display any appreciable toxicity | 40 |  |
| 0.21 | CC(=O)Nc1nnc(S(N)(=O)=O)s1 [AAZ, acetazolamide] |  |  |  | did not display any appreciable toxicity | did not display any appreciable toxicity | did not display any appreciable toxicity | did not display any appreciable toxicity | 80 | 10 |
| 0.67 | CCN[C@H]1C[C@H](C)S(=O)(=O)c2sc(S(N)(=O)=O)cc21 [DZA, dorzolamide] |  |  |  |  |  |  |  |  |  |
